Assays:
[1] = tested on: patients with multiple sclerosis; assay: Timed 10 meter walk, 15 week study; format: in vivo, human
Procedure: Secondary outcomes were also measured in the above-described study. Such secondary outcomes included the Rivermead mobility index (See e.g. Collen, F. M. et al., The Rivermead mobility index: a further development of the Rivermead motor assessment. Int. Disanil. Stud. 1991; 13:50 54) hereby incorporated by reference in its entirety, a timed 10 meter walk, four self completion questionnaires—the United Kingdom neurological disability score (See e.g. Sharrack, B., Hughes R. A., The Guy's neurological disability scale (GNDS): a new disability measure for multiple sclerosis. Mult. Sder. 1999; 5: 223-33), and a series of nine category-rating scales. For the category-rating scale assessment, patients were asked to assess how their symptoms had been over the previous week compared with how they were just before the study started. Categories included irritability, depression, tiredness, muscle stiffness, tremor, pain, sleep, muscle spasms, and amount of energy.
With respect to secondary outcome measures, 322 patients provided at least one baseline walk time. Of these, seven (1 cannabis extract, 3 delta-9-THC, 3 placebo) dropped out of the trial. Walk times were obtained from 278 patients at visit seven. In total, 20 patients were unable to walk (8 cannabis extract, 5 delta-9-THC, 7 placebo) and very large walk times were substituted for these individuals.

[2] = tested on: patients with multiple sclerosis; assay: Patient assessment of treatment benefit at visit 8; format: in vivo, human; details: patient assessment at visit 8
Source text: At visit 8 in the study described in Examples 1 and 2, patients were asked uestions about whether treatment had improved pain, tremor, spasticity, or ymptoms. […] Overall, more patients perceived an improvement in spasticity and pain when taking the active treatments than when taking placebo. Difference in perception of improvement in tremor was not statistically significant and no treatment effect on bladder symptoms was identified. Although there was no stratification for these specific symptoms between groups, the groups were broadly balanced for these symptoms apart from bladder symptoms, where there were fewer patients with urinary symptoms in the group taking, delta-9-THC.

[3] = tested on: patients with multiple sclerosis; assay: Category rating scales, 52 week follow up; format: in vivo, human; details: category rating scale, 52 week follow up study
Source text: In order to reduce the potential for unmasking bias from treatment side effects, two study personnel were used at each centre. A treating physician monitored the dosage, side effects, and patient wellbeing, while an assessor (usually a physiotherapist) measured the Ashworth score, timed 10 metre walk, and Rivermead Mobility Index (RMI). […] Assessors remained blinded to any discussion of dosage or side effects, and when evaluating patients' spasticity, were instructed not to have access to their assessment scores from previous visits. Self completion booklets containing the General Health Questionnaire-30 (GHQ-30), category rating scales (asking patients to assess any change in their symptoms at that point in the study compared with how they were before they started medication, and measuring irritability, depression, tiredness, muscle stiffness, tremor, pain, sleep, muscle spasms, and energy levels), the UK Neurological Disability Scale (UKNDS), and the Barthel Index (BI) were sent to participants just prior to week 27 and week 52. The Expanded Disability Status Scale (EDSS) was used at week 52.
Times taken to complete a 10 metre walk were analysed using the Kruskal-Wallis test, and non-parametric methods were used to produce confidence intervals for the median. The RMI, UKNDS, postal BI, and GHQ-30 were each analysed using non-parametric analysis of variance to compare the groups. EDSS scores were analysed using Fisher's exact test. Category rating scales were analysed using contingency table analysis. Comparison was made between patients choosing to continue on medication and those who chose to discontinue, by baseline Ashworth scores, RMI, EDSS, age, weight, ambulatory status, type of disease, sex, and use of urinary catheter. No adjustments were made for multiple comparisons.

[4] = tested on: patients with multiple sclerosis; assay: Serious adverse events (hospital admissions), 52 week follow up; format: in vivo, human
Source text: During this study, all hospital admissions were classed as serious adverse events.

[5] = tested on: patients with MS; details: 4 week period, oral; cited from earlier work
[6] = tested on: multiple sclerosis patients; details: 15 week trial; cited from earlier work

SMILES: CCCCCc1cc(O)c2c(c1)OC(C)(C)[C@@H]1CCC(C)=C[C@@H]21 (relative stereo) [delta-9-THC, Delta-9-Tetrahydrocannabinol]
- reduction of median time taken to walk 10 meters from baseline to follow-up ([1]; baseline to visit 7): 12%
- patients unable to walk (number) ([1]; visit 7): 5
- Bladder symptom improvement: No, % of patients [2]: 59%
- Bladder symptom improvement: No, number of patients [2]: 97
- Bladder symptom improvement: Yes, % of patients [2]: 40%
- Bladder symptom improvement: Yes, number of patients [2]: 67
- Pain improvement: No, % of patients [2]: 50%
- Pain improvement: No, number of patients [2]: 64
- Pain improvement: Yes, % of patients [2]: 50%
- Pain improvement: Yes, number of patients [2]: 64
- Spasticity improvement: No, % of patients [2]: 40%
- Spasticity improvement: No, number of patients [2]: 73
- Spasticity improvement: Yes, % of patients [2]: 60%
- Spasticity improvement: Yes, number of patients [2]: 108
- Tremor improvement: No, % of patients [2]: 60%
- Tremor improvement: No, number of patients [2]: 67
- Tremor improvement: Yes, % of patients [2]: 40%
- Tremor improvement: Yes, number of patients [2]: 44
- Depression: Deterioration, % [3]: 17 (17) %
- Depression: Improvement, % [3]: 26%
- Depression: Same, % [3]: 57%
- Energy: Deterioration, % [3]: 20%
- Energy: Improvement, % [3]: 24%
- Energy: Same, % [3]: 56%
- Irritability: Deterioration, % [3]: 15 (15) %
- Irritability: Improvement, % [3]: 30%
- Irritability: Same, % [3]: 55%
- Pain: Deterioration, % [3]: 16%
- Pain: Improvement, % [3]: 28%
- Pain: Same, % [3]: 56%
- Shaking: Deterioration, % [3]: 19 (19) %
- Shaking: Improvement, % [3]: 26%
- Shaking: Same, % [3]: 55%
- Sleep: Deterioration, % [3]: 12%
- Sleep: Improvement, % [3]: 34%
- Sleep: Same, % [3]: 54%
- Spasms: Deterioration, % [3]: 25%
- Spasms: Improvement, % [3]: 29%
- Spasms: Same, % [3]: 46%
- Spasticity: Deterioration, % [3]: 33%
- Spasticity: Improvement, % [3]: 33%
- Spasticity: Same, % [3]: 34%
- Tiredness: Deterioration, % [3]: 21%
- Tiredness: Improvement, % [3]: 25%
- Tiredness: Same, % [3]: 54%
- serious adverse events reported (total number) ([4]; 52 week follow up, all hospital admissions): 24
- Serious adverse event: Insertion of baclofen pump (frequency) ([4]; CM): 0
- Serious adverse event: Limb fracture (frequency) ([4]; CM): 0
- Serious adverse event: Other (frequency) ([4]; CM): 8
- Serious adverse event: Pneumonia/chest infection (frequency) ([4]; CM): 1
- Serious adverse event: Relapse/possible relapse (frequency) ([4]; CM): 8
- Serious adverse event: Seizure (frequency) ([4]; CM): 0
- Serious adverse event: Urinary tract infection (frequency) ([4]; CM): 3
- Serious adverse events: No. of events ([4]; CM): 20
- Serious adverse events: no. of patients ([4]; CM): 18
- Serious adverse event: Insertion of baclofen pump (frequency) ([4]; DM): 0
- Serious adverse event: Limb fracture (frequency) ([4]; DM): 0
- Serious adverse event: Other (frequency) ([4]; DM): 2
- Serious adverse event: Pneumonia/chest infection (frequency) ([4]; DM): 0
- Serious adverse event: Relapse/possible relapse (frequency) ([4]; DM): 2
- Serious adverse event: Seizure (frequency) ([4]; DM): 0
- Serious adverse event: Urinary tract infection (frequency) ([4]; DM): 0
- Serious adverse events: No. of events ([4]; DM): 4 (4)
- Serious adverse events: no. of patients ([4]; DM): 4 (4)
- changes in Ashworth scores [5]: no significant changes
- slowing of progression of MS [6]: did not yield results indicating that cannabinoids including dronabinol slowed progression of MS

— US20080175902A1, “Methods for slowing the progression of multiple sclerosis” (University of Plymouth, priority 2006, published 2008)
